Results reported in patent publication US7534606B2, “Placental stem cell and methods thereof” (National Health Research Institutes, priority 2004, dated 2009).
Read-outs that look alike come from different tables or passages of the source.

Experiments:
placental stem cells [1] = assay type: cell-based
Procedure: Immunocytochemistry and immunofluorescence and RT-PCR. Cultured cells were fixed with 4% paraformaldehyde for 5 minutes at room temperature and permeabilized with 0.1% Triton-X 100 for 20 minutes. Slides were then incubated sequentially with primary antibody overnight at 4° C. For immunocytochemistry, primary antibodies against NSE (Sigma) (1:25) was applied, followed by biotinylated anti-rabbit antibody and an avidin-biotin conjugate of hourseradish peroxidase (Vector Laboratories, Burlingame, Calif., USA). For immunofluorescence staining, primary antibodies against NeuN (Chemicon International Inc., Temecula, Calif., USA) (1:100), Nestin (BD Biosciences) (1:100), GFAP (glial fibrillary acidic protein, Chemicon International Inc.) (1:100), MAP2 (microtubule-associated protein 2, Chemicon International Inc.) (1:200), and NG2 (Chemicon International Inc.) (1:50) were used. Cy3 or fluorescein-labeled secondary antibodies were then applied for 1 hour at 37° C., and stained with 4′, 6-diamino-2-phenylindole (DAPI) (KPL Inc. Gaithersburg, Mass., USA) to identify cell nuclei. Cells were visualized by confocal fluorescence microscopy (Zeiss, LSM 510).
For RT-PCR, total RNA was isolated from cultured cells using Purescript (Gentra System, Minneapolis, Minn., USA), and 2 μg of total RNA was used for reverse transcription using Superscript II (Invitrogen, Carlsbad, Calif., USA). The cDNA was synthesized using Taq Platinum (Invitrogen) and 0.025 μg/μl oligo(dT). An equal volume of each sample was used to amplify human genes with 1 μM of each of the following primers: for the human nestin gene 5′-CCC TGA CCA CTC CAG TTT A-3′ and 5′-GAG TCC TGG ATT TCCTTC-3′; for the human Oct-4 gene 5′-GTGAAGCTGGAGAAGGAGAAGCTG-3′ and 5′-CAAGGGCCGCAGCTTACACATG-3′; and for the neurofilament light-chain (NF-L) gene 5′-CCC GAC TCA GTT TCA CC-3′ and 5′-CAG CCT TAG ACG CCT C-3′. Human glyceraldehyde-3-phosphate dehydrogenase (GAPDH) primers (Clontech, Palo Alto, Calif., USA) were used as internal controls for the PCR reactions. The cDNA from each sample was amplified for 30 cycles (1 min at 94° C., 1 min at 65° C., and 1 min at 72° C.). The PCR products were then separated by electrophoresis on 1.5% agarose gels. The sequence of each PCR product was confirmed using automatic sequencing.
Placental stem cells obtained according to Example 1 were plated on 35 mm culture dishes without coating, or if coated, with fibronectin, gelatin, or poly-L-Lysine (Sigma). Cells were cultured in serum-free DMEM-LG (Gibco) at various densities and exposed to either 10 ng/ml basic fibroblastic growth factor (b-FGF)/20 ng/ml epidermal growth factor (EGF) (both from R&D), retinoic acid (RA) (Sigma) at 10^−6M, β-mercaptoethanol/dimethysulfoxide/butylated hydroxyanisole (1×10^−5M βME/2% DMSO/100 μM BHA) (Sigma), or 0.5 mM 1-methyl-3-isobutylxanthine (IBMX, Sigma) for 3 to 6 days. Cells were then harvested for RT-PCR and immunocytochemical analysis as described above.
Differentiation to neural-like cells was quantified as a percentage of the total number of […] stem cells grown under differentiation conditions. Cells were stained for NSE expression and analyzed under an invert microscope. Five non-overlapping low power images were captured from each sample. […] Total cell count was determined by staining with 4′,6-diamidino-2-phenylindole (DAPI), which stains nuclei specifically, or with anti-human nuclei antibody (1:50) (Chemicon International Inc.).

placental stem cells [2] = assay type: cell-based; conditions: after 24 hours of treatment; three independent experiments
[3] = tested on: human marrow stromal cells; conditions: Deng et al. 2001; cited from earlier work
[4] = IBMX-treated cultures, immunofluorescence

**Q.** What does the source list for CC(C)Cn1c(=O)n(C)c(=O)c2[nH]cnc21 [IBMX, 1-methyl-3-isobutylxanthine]?
**A.** morphological changes (cytoplasm retracted, extensions) (placental stem cells [1]; 3 to 6 days in medium, RA 10^−6M, IBMX 0.5 mM, compared with expansion medium): morphological changes; NSE expression compared with control cells (placental stem cells [1]; 3 to 6 days in medium, immunocytochemical staining): higher levels of NSE; astrocytes (GFAP) of the total cell count (placental stem cells [1]; [4]): ~1%; neurons (MAP2) of the total cell count (placental stem cells [1]; [4]): approximately 16%; oligodendrocytes (NG2) of the total cell count (placental stem cells [1]; [4]): ~17%; placental stem cells differentiated (placental stem cells [1]; after 5 days of treatment, three independent experiments): more than 40%; expression of neural filament light chain (NF-L) by RT-PCR (placental stem cells [1]; after five days of treatment): detected; dose dependence of induced differentiation (placental stem cells [1]; data not shown): dose-dependent effect; effect of removal from the culture medium (placental stem cells [1]; data not shown): reversion of the cells to their original phenotype; time to first morphological changes (placental stem cells [1]; in a portion of placental stem cells): 2 hours; placental stem cells differentiated (placental stem cells [2]): 7%; expression of GFAP [3]: no expression of GFAP; expression of NSE [3]: increased expression of NSE

**Q.** With CC1=C(/C=C/C(C)=C/C=C/C(C)=C/C(=O)O)C(C)(C)CCC1 [RA, retinoic acid] as the compound, how does the “differentiation into neural-like cells” value (placental stem cells [1]; after 6 days of incubation, RA 10^−6M, IBMX 0.5 mM, retracted cell bodies and positive NSE staining, % of total cells) read?
**A.** The value was “about 10%”.
